Consider 5 compounds from ChEMBL document CHEMBL1201862, “PubChem BioAssay data set” (2004).

Some test systems named below: A498; ACHN; BT-549; DU-145; HOP-92; HT-29; IGROV-1; MDA-MB-435; MDA-N; MOLT-4; OVCAR-3; SF-268; SK-MEL-5; SW-620; U-251; Hs-578T; K562; NCI-H522; RPMI-8226.
What all share (assay): growth of human tumour cells (NCI), 48 h

Each structure is given as a SMILES string.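 Following 48 hours of exposure in 96-well plates, responses at five concentrations were used to interpolate endpoints linearly. GI50 is the concentration that inhibits growth by half.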 The source made the active and inactive calls. Cut-off read from the data, not from the text of the source: active = GI50 up to about 1.1 µM and inactive = higher. Where only a bound is given, the exact number is not on record here.

In the case of `CC1=CC(=O)/C(=C/NC(=S)Nc2ccc(S(N)(=O)=O)cc2)C(=O)O1`, the GI50 in the experiment on A498, with ACHN, with BT-549, in the experiment with DU-145, with HOP-92 and in the experiment with HT-29 was > 100 µM (inactive) in each case. The GI50 in the experiment on IGROV-1, in the experiment with MDA-MB-435, in the experiment on MDA-N, in the experiment on MOLT-4, in the experiment with OVCAR-3 and with SF-268 was > 100 µM (inactive) throughout. For the same compound, the GI50 with SK-MEL-5, in the experiment with SW-620 and in the experiment on U-251 was > 100 µM (inactive) each time.

In the case of `COc1ccc2c(c1)CN1C(=N2)CSC1c1ccccc1Cl` (stereo unspecified), the GI50 was 17.6 µM (inactive) in the experiment on ACHN; 25.2 µM (inactive) in the experiment on BT-549; 11.3 µM (inactive) in the experiment with HOP-92; 17.4 µM (inactive) in the experiment on HT-29; 27.9 µM (inactive) in the experiment on Hs-578T; 14.9 µM (inactive) with IGROV-1. The GI50 in the experiment on K562 was 5.33 µM (inactive); in the experiment on MDA-MB-435, 18.8 µM (inactive); with MDA-N, 17.1 µM (inactive); in the experiment with MOLT-4, 0.54 µM (active); in the experiment with NCI-H522, 12.9 µM (inactive); in the experiment with RPMI-8226, 12.1 µM (inactive). Moreover, the GI50 with SF-268 is 24 µM (inactive); in the experiment on SK-MEL-5 it was 14.4 µM (inactive); in the experiment on SW-620, 17.4 µM (inactive); in the experiment with U-251 it was 21.5 µM (inactive).

In the case of `N#Cc1c(N2CCOCC2)ncn(-c2ccccc2)c1=O`, the GI50 in the experiment on A498 was > 100 µM (inactive); in the experiment on ACHN it was > 100 µM (inactive); in the experiment with BT-549, > 100 µM (inactive); in the experiment on DU-145, > 100 µM (inactive); in the experiment with HOP-92, > 100 µM (inactive); in the experiment on IGROV-1, 63.4 µM (inactive). The GI50 in the experiment with K562, in the experiment on MDA-MB-435, with MDA-N, in the experiment with MOLT-4, in the experiment with OVCAR-3 and in the experiment with RPMI-8226 was > 100 µM (inactive) throughout. Moreover, the GI50 in the experiment with SK-MEL-5, with SW-620 and with U-251 was > 100 µM (inactive) each time.

For the compound `COc1cccc2c(Nc3ccc(S(=O)(=O)N=C(N)N)cc3)c3ccc([N+](=O)[O-])cc3nc12`, the GI50 with A498 was 19.1 µM (inactive); with ACHN, 10.2 µM (inactive); in the experiment on BT-549, 13.6 µM (inactive); in the experiment on DU-145, 8.67 µM (inactive); in the experiment on HOP-92, 12.3 µM (inactive); in the experiment with HT-29 it was 32.8 µM (inactive). Also, the GI50 is 8.2 µM (inactive) in the experiment with IGROV-1; 6 µM (inactive) in the experiment with K562; 23.6 µM (inactive) in the experiment with MDA-MB-435; 17.6 µM (inactive) with MDA-N; 2.29 µM (inactive) with MOLT-4; 6.71 µM (inactive) in the experiment with NCI-H522. Moreover, the GI50 in the experiment on OVCAR-3 is 20.4 µM (inactive); in the experiment on RPMI-8226, 8.05 µM (inactive); with SF-268, 5.62 µM (inactive); in the experiment with SK-MEL-5, 11.6 µM (inactive); in the experiment with SW-620, 16.7 µM (inactive); in the experiment with U-251 it was 5.61 µM (inactive).

`Cc1ccc(C(=O)c2[nH]c(Nc3ccc(Cl)cc3)c(C(=S)Nc3ccccc3)c2N)cc1`: the GI50 with A498 was 13.6 µM (inactive); in the experiment on ACHN, 3.27 µM (inactive); in the experiment on BT-549 it was 8.04 µM (inactive); in the experiment on DU-145 it was 8.05 µM (inactive); with HOP-92, 12.9 µM (inactive); in the experiment on HT-29 it was 4.43 µM (inactive). Besides, the GI50 was 4.41 µM (inactive) with IGROV-1; 7.38 µM (inactive) in the experiment on K562; 6.68 µM (inactive) in the experiment with MDA-MB-435; 6.73 µM (inactive) in the experiment on MDA-N; 12.1 µM (inactive) in the experiment with MOLT-4; 9.68 µM (inactive) in the experiment with NCI-H522. The GI50 in the experiment on OVCAR-3 was 11.3 µM (inactive); in the experiment with RPMI-8226, 5.05 µM (inactive); in the experiment on SF-268, 5.78 µM (inactive); with SW-620 it was 11.5 µM (inactive); in the experiment with U-251, 3.01 µM (inactive).
